From paper PMC8699473, “An Easily Expandable Multi-Drug LC-MS Assay for the Simultaneous Quantification of 57 Oral Antitumor Drugs in Human Plasma” (Cancers, 2021)

Test: Short-term stability in spiked pooled human plasma (bench-top, 4 °C, 56 °C)

SMILES | Short-time stability (1h, 56°C) Accuracy [%] (validation standard 2xLLOV) | Short-time stability (24h, 4°C, without daylight) Accuracy [%] (validation standard 2xLLOV) | Short-time stability (24h, RT, with daylight) Accuracy [%] (validation standard 2xLLOV) | Short-time stability (24h, RT, without daylight) Accuracy [%] (validation standard 2xLLOV) | Short-time stability (1h, 56°C) Accuracy [%] (validation standard LLOV) | Short-time stability (24h, 4°C, without daylight) Accuracy [%] (validation standard LLOV) | Short-time stability (24h, RT, with daylight) Accuracy [%] (validation standard LLOV) | Short-time stability (24h, RT, without daylight) Accuracy [%] (validation standard LLOV) | Short-time stability (1h, 56°C) Accuracy [%] (validation standard MOV) | Short-time stability (24h, 4°C, without daylight) Accuracy [%] (validation standard MOV) | Short-time stability (24h, RT, with daylight) Accuracy [%] (validation standard MOV) | Short-time stability (24h, RT, without daylight) Accuracy [%] (validation standard MOV) | Short-time stability (1h, 56°C) Accuracy [%] (validation standard ULOV) | Short-time stability (24h, 4°C, without daylight) Accuracy [%] (validation standard ULOV) | Short-time stability (24h, RT, with daylight) Accuracy [%] (validation standard ULOV) | Short-time stability (24h, RT, without daylight) Accuracy [%] (validation standard ULOV) | concentrations in short-term stability investigations (24 h, room temperature, with or without light)
C[C@H]1Oc2cc(cnc2N)-c2c(nn(C)c2C#N)CN(C)C(=O)c2ccc(F)cc21 [Lorlatinib] | 60.0% | 99.8% | 98.9% | 99.6% | 54.3% | 98.8% | 96.4% | 97.8% | 57.8% | 101.8% | 100.2% | 99.2% | 50.7% | 97.0% | 100.4% | 99.9% | 
CO[C@@H]1[C@H](N(C)C(=O)c2ccccc2)C[C@H]2O[C@]1(C)n1c3ccccc3c3c4c(c5c6ccccc6n2c5c31)C(=O)NC4 [Midostaurin] | 45.3% | 93.5% | 91.7% | 88.1% | 39.0% | 90.3% | 89.5% | 85.7% | 41.7% | 103.7% | 88.3% | 91.0% | 37.7% | 98.8% | 89.5% | 88.4% | 
CCOc1cc2ncc(C#N)c(Nc3ccc(OCc4ccccn4)c(Cl)c3)c2cc1NC(=O)/C=C/CN(C)C [Neratinib] | -7.9% | 79.9% | 23.2% | 25.4% | -88.6% | 65.9% | -37.5% | -39.1% | 26.0% | 89.7% | 37.9% | 39.2% | 21.9% | 81.3% | 28.5% | 31.5% | 
C=CC(=O)Nc1cc(Nc2nccc(-c3cn(C)c4ccccc34)n2)c(OC)cc1N(C)CCN(C)C [Osimertinib] | 29.9% | 95.8% | 61.4% | 61.7% | 28.7% | 85.8% | 62.0% | 60.5% | 30.1% | 96.3% | 75.7% | 72.0% | 26.0% | 86.7% | 67.4% | 63.9% | 60.5–75.7%
Cc1[nH]c2ccccc2c1CCNCc1ccc(/C=C/C(=O)NO)cc1 [Panobinostat] | 27.6% | 81.5% | 53.1% | 45.4% | 1.9% | 66.1% | -0.2% | 52.8% | 48.8% | 93.6% | 92.2% | 96.2% | 46.3% | 89.2% | 96.0% | 100.4% | 
Cc1ccc(Nc2nccc(N(C)c3ccc4c(C)n(C)nc4c3)n2)cc1S(N)(=O)=O [Pazopanib] |  | 101.2% | 103.3% | 104.3% |  | 104.1% | 100.2% | 105.8% |  | 97.8% | 99.1% | 101.2% |  | 97.1% | 102.6% | 99.1% | 
Cc1ccc(C(=O)Nc2ccc(CN3CCN(C)CC3)c(C(F)(F)F)c2)cc1C#Cc1cnc2cccnn12 [Ponatinib] | 48.3% | 96.6% | 98.7% | 98.1% |  |  |  |  | 50.8% | 100.1% | 99.8% | 102.6% | 43.1% | 93.3% | 97.8% | 98.9% | 
CN(C)C(=O)c1cc2cnc(Nc3ccc(N4CCNCC4)cn3)nc2n1C1CCCC1 [Ribociclib] | 49.7% | 98.0% | 94.2% | 92.7% | 30.6% | 87.3% | 79.3% | 81.3% | 50.5% | 98.8% | 95.0% | 93.5% | 41.5% | 84.9% | 84.8% | 83.3% | 
CNCc1ccc(-c2[nH]c3cc(F)cc4c3c2CCNC4=O)cc1 [Rucaparib] | 56.7% | 94.0% | 94.3% | 95.8% | 60.9% | 106.8% | 100.0% | 99.7% | 52.2% | 102.0% | 100.5% | 102.1% | 46.1% | 96.9% | 98.9% | 99.1% | 
